Laboratory results published in patent publication US8829049B2, “Medicinal composition intended for the treatment of erectile dysfunction in mammals and use of the composition” (ACEF S.A., priority 2009, dated 2014).
Entries after “also recorded” stand apart in the source; their conditions may differ. Counter-ions that a name gives are not always drawn.

Experiments:
[1] = system: Swiss mice; test: vasodilating effect / penile erection test in Swiss mice, intraperitoneal administration, with penile histology; format: in vivo
Description: (§1) 42 Swiss mice have been used, adults, between 18 and 24 weeks old, weighing between 25 and 35 grams, from the Biotherium of the University of Franca (UNIFRAN), which were confined in plastic cages with metal fences and fed with standard feed (Labina-Purina) and water ad libitum, at room temperature of 22° C.
After a period of adaptation, the animals have been divided into seven groups, as per Table 1 below:
Animals from all groups have been kept under the same conditions for four hours for later evaluation of the studied pharmacological effect. They were subsequently anesthetized with a solution of 1.5 mg of ketamine plus 0.1 mg of xylazine and then euthanized to take off the penile tissue. Each sample was immediately stocked in 10% formaldehyde to make histological slides.

[2] = heart rate and adverse signs in the treated mice; format: in vivo; conditions: for Heart rate, AVERAGE, after: after administration; for Heart rate, AVERAGE, before: before administration; for adverse signs observed (tachycardia, shaking): intraperitoneal, Group I sildenafil citrate, Group III cubebin
Description: as §1
After a period of adaptation, the animals have been divided into seven groups, as per Table 1 below: […]

[3] = cited from earlier work
[4] = system: patients; conditions: cited from earlier work; for adverse effects: patients; for interaction with nitrates: combination with nitroglycerin / organic nitrates
[5] = target: phosphodiesterase 5 (PDE-5) (Homo sapiens, UniProt O76074); test: activity test for the enzyme phosphodiesterase 5 (PDE-5); format: biochemical; conditions: PDE-5 enzyme activity; read-out: 50% effective dose (DE50)

| EC50 [5] | Molecule | Heart rate, AVERAGE, after [2] | Heart rate, AVERAGE, before [2] | adverse signs observed (tachycardia, shaking) [2] | adverse effects [4] | interaction with nitrates [4] | other results |
| --- | --- | --- | --- | --- | --- | --- | --- |
| – | O[C@H]1OC[C@H](Cc2ccc3c(c2)OCO3)[C@H]1Cc1ccc2c(c1)OCO2 [cubebin] | – | – | – | – | – | ejaculation after treatment ([1]; mice of Group III, FIGS. 4c and 4d): ejaculating after said treatment; penile erection / sexual behaviour observed ([1]; mice, intraperitoneal, Group I sildenafil citrate, Group III 20 mg/kg cubebin): prolonged erection and licked the penis; also recorded: penile erection; histology of corpus cavernosum ([1]; mouse penile tissue, H. E., 400×): void space very dilated and congested |
| – | CCCc1nn(C)c2c(=O)[nH]c(-c3cc(S(=O)(=O)N4CCN(C)CC4)ccc3OCC)nc12 [sildenafil citrate] | 627.75 | 628.5 | tachycardia, shaking and testicle tumescence | cephalea, red skin, dyspepsia, nose congestion and visual disturbances | – | half life in circulation ([3]; in vivo): four; deaths related to the drug reported ([4]; in vivo): More than 500 deaths; rate of deaths ([4]; in vivo): fifty |
| 16.6 ± 8.2 µM | OC1OC[C@H](Cc2ccc3c(c2)OCO3)[C@H]1Cc1ccc2c(c1)OCO2 (mixture of isomers) [cubebin] | 553.5 | 621.7 | not causing tachycardia or shaking | – | – | – |
| – | CCCc1nc(C)c2c(=O)[nH]c(-c3cc(S(=O)(=O)N4CCN(CC)CC4)ccc3OCC)nn12 [Vardenafil] | – | – | – | – | minimum changes in heart rate and blood pressure | time to maximum plasma concentration ([3]; single doses of 10 or 20 mg): ≤ 0.7 h |
| – | CN1CC(=O)N2[C@H](c3ccc4c(c3)OCO4)c3[nH]c4ccccc4c3C[C@@H]2C1=O [Tadalafil] | – | – | – | patients did not have red skin | modest synergic effects | – |
| 38.4 ± 1.8 µM | hydroethylic desildenafil citrate | – | – | – | – | – | – |
